2 compounds from patent US10226448B2, “3-(1H-pyrrolo[3,2-C]pyridin-2-yl)-1H-pyrazolo[3,4-B]pyridines and therapeutic uses thereof” (Samumed, LLC, priority 2015, dated 2019) can be followed below.

What all share (assay type): cell-based
The subject of assay [1] is Wnt activity (Sp5-Luc reporter, TCF/LEF binding sites) in SW480 colon carcinoma cells. The assay can be described thus: Wnt activity screening assay: Sp5-Luc reporter gene assay in SW480 cells. As to conditions: Homo sapiens; Sp5-Luc reporter, SW480 cells, overnight incubation. In outline: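 SW480 cells stably carrying a luciferase reporter under a human Sp5 promoter with eight TCF/LEF sites, plated at 4,000 cells/well in 1% FBS medium. Luminescence read with BrightGlo, normalized to DMSO-treated cells; EC50 from four-parameter variable-slope nonlinear regression.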
For orientation: Reporter assays use an easily measured gene product as a stand-in for the process of interest.

The test system of assay [2] is LL29 cells (primary human fibroblasts derived from IPF patients), α-smooth muscle actin. Description: Inhibition of the fibrotic process: αSMA staining in TGF-β1 treated primary human fibroblasts from IPF patients (LL29 cells). Conditions: Fibroblast, 96 h, LL29 cells, TGF-β1 20 ng/mL, 4 days, % αSMA positive cells. In outline:
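Read-out after 4-day incubation: αSMA staining with 1 μM SYTOX green nuclear counterstain (30 min, room temperature). Cells were LL29 primary fibroblasts from IPF patients, in 1% FBS F12, exposed to TGF-β1 with test compound, referenced to TGF-β1/DMSO control wells.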

Assay [3] deals with primary human mesenchymal stem cells (hMSCs). Description: Induction of chondrogenesis in primary human mesenchymal stem cells (chondrogenic nodules, Rhodamine B / Nile Red). Conditions: 6 days; for Emax: relative to TGF-β3 (10 ng/mL) positive control, read-out: Max. Activity as % TGF-β3 activity. In outline:
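Primary hMSCs at passage 3–6 were fixed with 4% formaldehyde and stained with 2 μg/mL Rhodamine B plus 20 μM Nile Red to image chondrogenic nodules. Nodule counts normalized to the mean of 3 DMSO wells (fold change), averaged over 3 replicate wells per concentration. TGF-β3 served as positive control; EC50, maximum activity and the dose giving maximum are reported.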

A further assay relates to IL-6 in THP-1 cells. Description: IL-6 inhibition in LPS-stimulated THP-1 human monocyte cells (HTRF). Conditions: IL-6 inhibition, LPS-stimulated THP-1 cells, HTRF, 10-point dose-response starting from 10 μM. The essentials: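 THP-1 cells were serum-reduced (1% FBS, 24 h), plated at 5000 cells/well with compound for 2 h at 37 °C, then stimulated 22 h with 500 ng/mL LPS. Secreted IL-6 was quantified by HTRF (665/620 nm ratio). Signals were normalised to DMSO, and EC50 was fitted by four-parameter nonlinear regression.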
A general note: In TR-FRET formats the signal depends on donor and acceptor labels being close together.

The subject of another assay is SW480 colon cancer cells. The assay can be described thus: Cell viability assay (CellTiter-Blue) in SW480 colon cancer cells. As to conditions: Homo sapiens, 96 h; SW480 cell viability, four days, CellTiter-Blue. The essentials: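 Fluorescence from resazurin reduced to resorufin by metabolically active cells was the read-out, taken after ~3 h with CellTiter-Blue.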

`CCC(=O)Nc1cncc(-c2cnc3[nH]nc(-c4cc5c(-c6cccc(F)c6)nccc5[nH]4)c3c2)c1` [Compound 1, N-(5-(3-(4-(3-Fluorophenyl)-1H-pyrrolo[3,2-c]pyridin-2-yl)-1H-pyrazolo[3,4-b]pyridin-5-yl)pyridin-3-yl)propionamide]: the EC50 amounted to 272 nM in assay [1]; 606 nM in assay [2]; 300 nM in assay [3] (concentration required to induce 50% levels of chondrogenesis vs TGF-β3, read-out: Conc (nM) of 50% TGF-β3 activity); 242 nM with IL-6 in THP-1 cells; 630 nM with SW480 colon cancer cells. Moreover, in assay [3], the Emax came out at 114%.
For `O=C(Nc1cncc(-c2cnc3[nH]nc(-c4cc5cnccc5[nH]4)c3c2)c1)C1CCCCC1` [Compound 275, N-(5-(3-(1H-Pyrrolo[3,2-c]pyridin-2-yl)-1H-pyrazolo[3,4-b]pyridin-5-yl)pyridin-3-yl)cyclohexanecarboxamide], the EC50 in assay [1] was 1400 nM; in assay [2], 1380 nM; with IL-6 in THP-1 cells, 447 nM; in the assay with SW480 colon cancer cells, 1520 nM. For the same compound, the Emax in assay [3] was 9%.
